Test results published in paper PMC12648656, “Palladium(II) Complexes with Noncovalent Interactions with DNA: Solution Speciation Controlled by Solvent Identity, pH, and Concentration” (Inorganic Chemistry, 2025).

Key:
calf thymus-DNA (CT-DNA) = assay: Viscometry with CT-DNA; format: binding; conditions: compound/DNA ratios 0.0 to 1.0; 5 mM Tris, 100 mM NaCl, pH 7.40, 25.0 °C
Procedure: […] Then, the samples were incubated at 37 °C and with constant shaking at 300 rpm for 10 min and 1 h. After each incubation, the viscosity was measured at a constant temperature of 25.0 ± 0.2 °C in a vibrational viscometer. The relative viscosity was calculated by taking the mean values of three replicate measurements, and the values were represented by plotting the values of relative viscosity of CT-DNA (η/η0)^1/3 against 1/R.

pBR322 plasmid DNA = assay: Agarose gel electrophoresis mobility shift; format: binding; conditions: r i 0.01 to 0.20, 24 h, 37 °C
Procedure: Complexes (2) and (3) were incubated at 37 °C with a concentration of 0.0625 μg/μL pBR322 plasmid DNA at different concentrations expressed as r i = complex:DNA (base pair) ratio. The r i used was from 0.01 to 0.20, in a total volume of 20 μL. After an incubation period of 24 h, the mobility of the complex-treated pBR322 samples was analyzed by gel electrophoresis at 70 V in Tris/acetate/EDTA buffer. A control of pBR322 was also incubated, and a 1 kb ladder aliquot was loaded into lane 1 of the gel. The gel was stained with an ethidium bromide aqueous solution, and DNA bands were visualized with a UV-transilluminator UVITEC Cambridge UVIDOC HD2 instrument. The studies were performed with 3% (v/v) DMSO as the final solution.

[1] = test system: Colo 205 human colon cancer cell line; design: method as in marks after cisplatin lost in b83 (probably 43, 44); conditions: Colo 205, 72 h exposure; ref marks after cisplatin lost in b83 (probably 43, 44); cited from earlier work
[2] = test system: MCF7 human breast cancer cell line; design: method as in marks after cisplatin lost in b83 (probably 43, 44); conditions: MCF7, 72 h exposure; ref marks after cisplatin lost in b83 (probably 43, 44); cited from earlier work
[3] = molecular target: T1, hen egg white lysozyme (HEWL) (Gallus gallus, UniProt P00698); design: method as in not given; conditions: reported under the same conditions; ref not given; cited from earlier work
T1 construct: a model protein, namely HEWL (hen egg white lysozyme), was also studied; from tissue; host or cells: hen egg white (from the protein's name)
T1 sequence (P00698 19-147): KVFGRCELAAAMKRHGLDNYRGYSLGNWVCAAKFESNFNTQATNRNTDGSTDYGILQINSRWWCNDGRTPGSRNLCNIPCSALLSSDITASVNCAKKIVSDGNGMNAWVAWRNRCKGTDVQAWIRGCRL

N.N.[Cl][Pt][Cl] [Cisplatin]
effect on relative viscosity of CT-DNA (calf thymus-DNA (CT-DNA)): relative viscosity of the solution decreases | effect on electrophoretic mobility of pBR322 (two forms, SC and OC) (pBR322 plasmid DNA): changes in the mobility of the pBR322 isoforms | IC50 [1]: 23 ± 1 µM | IC50 [2]: 15 ± 0.01 µM | observed rate constant k obs [3]: 1.98 × 10^–4 s^–1
